Paper PMC10600239, “Selective MCL-1 inhibitor ABBV-467 is efficacious in tumor models but is associated with cardiac troponin increases in patients” (Communications Medicine, 2023)
“And” between values parts separate entries of the source, which are not always exact repeats. Equal values may be shown once.

Tested on: OPM-2 xenografts
Test: OPM-2 xenograft efficacy (tumor volume, body weight)
Type: in vivo, mouse
Conditions: for Body Weight (g) Day 21, individual animals / Body Weight Day 21, Mean / Body Weight Day 21, Median / Relative to initial body wt., %: mouse, in vivo, iv
Procedure: All animal studies were conducted in accordance with the guidelines approved by the Institutional Animal Care and Use Committees of AbbVie. The research protocol was approved by In Vivo Pharmacology at AbbVie prior to study initiation but was not publicly registered or disclosed. Female C.B-17 SCID-beige mice (AMO-1, OPM-2, NCI-H929, and OCI-AML2 xenografts) and female NSG mice (MV4-11-Red.Fluc systemic) were purchased from Charles River Laboratories (Wilmington, MA). Animals were housed in a light cycle-controlled room with HEPA filtration at 22 °C. Animals had nesting and climbing cage topper as the primary environmental enrichment. Animals were inoculated subcutaneously in the right flank with 5 × 10^6 (AMO-1, OPM-2, NCI-H929, and OCI-AML2) or intravenous (IV) with 5 × 10^6 (MV4-11-Red.Fluc). The inoculation volume (0.2 mL) comprised a 50:50 mixture of cells in growth media and Matrigel (BD Biosciences) for subcutaneous injections and 100% phosphate-buffered saline for IV administration. All cell lines used in this publication were authenticated using IDEXX for STR profiling as well as their IMPACT and human IMPACT panels for pathogen screening. Electronic calipers were used to measure the length and width of each tumor 2 to 3 times per week. Tumor volume was estimated by applying the following equation: volume = length × width^2/2. All groups remained blinded during measurements and dosing; only veterinary staff were aware of group identity. When tumors reached approximately 200 mm^3, mice were randomized by match and distributed into treatment and control groups. All xenograft trials were conducted using 5 to 10 mice per group, and all mice were ear tagged and monitored individually throughout the studies. Any animal with a tumor above 2000 mm^3 or 15% loss in body weight was euthanized and removed from the study. Tumor burden in the systemic MV4-11-Red.Fluc experiment was measured using an IVIS® spectrum from PerkinElmer by taking the total photon flux of the entire dorsal side of an individual mouse. Ten minutes prior to imaging, animals received intraperitoneally 0.2 mL of a 15-mg/mL solution of D-Luciferin (PerkinElmer, Catalog #122799) formulated in 100% phosphate-buffered saline. Animals were anesthetized using 3.5% isoflurane and maintained using 2%. Six days after inoculation, animals were imaged and randomized into vehicle and treatment groups at a total flux of ~1 × 10^8. A background control mouse that was tumor naive but received D-Luciferin was placed in the upper left corner of each image. The total flux from this animal was subtracted from the total flux of each animal present in the image.
For in vivo studies, maximal tumor growth inhibition (TGI) was calculated as the greatest treatment response using the following equation: Maximal TGI = (1 − mean tumor volume of the treated group/mean tumor volume of the vehicle control group) × 100. The tumor growth delay (TGD) percentage was determined as the percentage increase of the median time period for the treatment group to reach an arbitrary tumor volume of 1000 mm^3 relative to the vehicle control group. […] A power analysis was conducted using historical data to determine the number of animals required to yield significance of 0.05 at a 30% difference. There were no animals excluded. Data from experiments in vivo were analyzed using the student’s t-test for TGI values and the Mann–Whitney U test for TGD using Excel and GraphPad Prism. Fisher’s exact test was used to probe significance of differences in response frequency.

[1] = OPM-2 (DSMZ) xenograft, SCID-beige mouse, 25 mg/kg q7dx3 IV, Day 63
[2] = OPM-2 (DSMZ) xenograft, SCID-beige mouse, 25 mg/kg q7dx3 IV, Day 70
[3] = OPM-2 (DSMZ) xenograft, SCID-beige mouse, 25 mg/kg q7dx3 IV, Day 77
[4] = OPM-2 (DSMZ) xenograft, SCID-beige mouse, 25 mg/kg q7dx3 IV, Day 106
[5] = OPM-2 (DSMZ) xenograft, SCID-beige mouse, 25 mg/kg q7dx3 IV, Day 113
[6] = OPM-2 (DSMZ) xenograft, SCID-beige mouse, 25 mg/kg q7dx3 IV, Day 120
[7] = individual animals, 6.25 mg/kg q7dx3 IV, Day 37, OPM-2 (DSMZ) xenograft, SCID-beige mouse, 6.25 mg/kg

## Cc1c(Cl)c2c(Cl)c(C)c1-c1c(-c3ccc(F)cc3)sc3ncnc(c13)O[C@@H](C(=O)O)Cc1cc(ccc1OCc1ccnc(-c3ccc(OC[C@H]4COCCO4)cc3)n1)OC[C@@H](CN1CCN(C)CC1)O2 [Compound A-1747745]
OPM-2 (DSMZ) xenograft, SCID-beige mice, 25 mg/kg q7dx3 IV, Day 21, mean(T)/mean(C)
  Body Weight Day 21, % T/C (mean): 105.36%
OPM-2 (DSMZ) xenograft, SCID-beige mice, 25 mg/kg q7dx3 IV, Day 21, median(T)/median(C)
  Body Weight Day 21, % T/C (median): 105.36%
[1]
  Tumor Volume (mm³) Day 63 (individual animals): 4 mm³
  Tumor Volume Day 63, Mean: 4.00 mm³
  Tumor Volume Day 63, Median: 4.00 mm³
[2]
  Tumor Volume (mm³) Day 70 (individual animals): 4 mm³
  Tumor Volume Day 70, Mean: 4.00 mm³
  Tumor Volume Day 70, Median: 4.00 mm³
[3]
  Tumor Volume (mm³) Day 77 (individual animals): 4 mm³
  Tumor Volume Day 77, Mean: 4.00 mm³
  Tumor Volume Day 77, Median: 4.00 mm³
[4]
  Tumor Volume (mm³) Day 106 (individual animals): 4 mm³
  Tumor Volume Day 106, Mean: 4.00 mm³
  Tumor Volume Day 106, Median: 4.00 mm³
[5]
  Tumor Volume (mm³) Day 113 (individual animals): 4 mm³
  Tumor Volume Day 113, Mean: 4.00 mm³
  Tumor Volume Day 113, Median: 4.00 mm³
[6]
  Tumor Volume (mm³) Day 120 (individual animals): 4 mm³
  Tumor Volume Day 120, Mean: 4.00 mm³
  Tumor Volume Day 120, Median: 4.00 mm³
Group mean, 6.25 mg/kg q7dx3 IV, Day 37, OPM-2 (DSMZ) xenograft, SCID-beige mouse
  Tumor Volume Day 37, Mean: 1067.37 mm³
Group mean, 25 mg/kg q7dx3 IV, Day 37, OPM-2 (DSMZ) xenograft, SCID-beige mouse
  Tumor Volume Day 37, Mean: 4.00 mm³
Group mean, 25 mg/kg q7dx3 IV, Day 41, SCID-beige mice
  Tumor Volume Day 41, Mean: 4.00 mm³
Group mean, 25 mg/kg q7dx3 IV, Day 44, SCID-beige mice
  Tumor Volume Day 44, Mean: 4.00 mm³
Group mean, 25 mg/kg q7dx3 IV, OPM-2 (DSMZ) xenograft, SCID-beige mice, Day 86
  Tumor Volume (mm³) Day 86, Mean: 4.00 mm³
Group mean, 25 mg/kg q7dx3 IV, OPM-2 (DSMZ) xenograft, SCID-beige mice, Day 93
  Tumor Volume (mm³) Day 93, Mean: 4.00 mm³
Group mean, 25 mg/kg q7dx3 IV, OPM-2 (DSMZ) xenograft, SCID-beige mice, Day 101
  Tumor Volume (mm³) Day 101, Mean: 4.00 mm³
Group mean, 25 mg/kg q7dx3 IV, OPM-2 (DSMZ) xenograft, SCID-beige mouse, Day 51
  Tumor Volume (mm³) Day 51, Mean: 4.00 mm³
Group mean, 25 mg/kg q7dx3 IV, OPM-2 (DSMZ) xenograft, SCID-beige mouse, Day 57
  Tumor Volume (mm³) Day 57, Mean: 4.00 mm³
Group median, 6.25 mg/kg q7dx3 IV, Day 37, OPM-2 (DSMZ) xenograft, SCID-beige mouse
  Tumor Volume Day 37, Median: 1120.03 mm³
Group median, 25 mg/kg q7dx3 IV, Day 37, OPM-2 (DSMZ) xenograft, SCID-beige mouse
  Tumor Volume Day 37, Median: 4.00 mm³
Group median, 25 mg/kg q7dx3 IV, Day 41, SCID-beige mice
  Tumor Volume Day 41, Median: 4.00 mm³
Group median, 25 mg/kg q7dx3 IV, Day 44, SCID-beige mice
  Tumor Volume Day 44, Median: 4.00 mm³
Group median, 25 mg/kg q7dx3 IV, OPM-2 (DSMZ) xenograft, SCID-beige mice, Day 86
  Tumor Volume (mm³) Day 86, Median: 4.00 mm³
Group median, 25 mg/kg q7dx3 IV, OPM-2 (DSMZ) xenograft, SCID-beige mice, Day 93
  Tumor Volume (mm³) Day 93, Median: 4.00 mm³
Group median, 25 mg/kg q7dx3 IV, OPM-2 (DSMZ) xenograft, SCID-beige mice, Day 101
  Tumor Volume (mm³) Day 101, Median: 4.00 mm³
Group median, 25 mg/kg q7dx3 IV, OPM-2 (DSMZ) xenograft, SCID-beige mouse, Day 51
  Tumor Volume (mm³) Day 51, Median: 4.00 mm³
Group median, 25 mg/kg q7dx3 IV, OPM-2 (DSMZ) xenograft, SCID-beige mouse, Day 57
  Tumor Volume (mm³) Day 57, Median: 4.00 mm³
[7]
  Mortality Observation Day 37: GRPX and EUTV (3×)
  Tumor Volume (mm³) Day 37: 830 mm³ and 1099 mm³ and 1199 mm³ and 1141 mm³
Individual animals, 25 mg/kg q7dx3 IV, Day 37, OPM-2 (DSMZ) xenograft, SCID-beige mouse
  Tumor Volume (mm³) Day 37: 4 mm³
Individual animals, 25 mg/kg q7dx3 IV, Day 41, SCID-beige mice
  Tumor Volume (mm³) Day 41: 4 mm³
Individual animals, 25 mg/kg q7dx3 IV, Day 44, SCID-beige mice
  Tumor Volume (mm³) Day 44: 4 mm³
Individual animals, 25 mg/kg q7dx3 IV, OPM-2 (DSMZ) xenograft, SCID-beige mice, Day 86
  Tumor Volume (mm³) Day 86: 4 mm³
Individual animals, 25 mg/kg q7dx3 IV, OPM-2 (DSMZ) xenograft, SCID-beige mice, Day 93
  Tumor Volume (mm³) Day 93: 4 mm³
Individual animals, 25 mg/kg q7dx3 IV, OPM-2 (DSMZ) xenograft, SCID-beige mice, Day 101
  Tumor Volume (mm³) Day 101: 4 mm³
Individual animals, 25 mg/kg q7dx3 IV, OPM-2 (DSMZ) xenograft, SCID-beige mouse, Day 51
  Tumor Volume (mm³) Day 51: 4 mm³
Individual animals, 25 mg/kg q7dx3 IV, OPM-2 (DSMZ) xenograft, SCID-beige mouse, Day 57
  Tumor Volume (mm³) Day 57: 4 mm³
6.25 mg/kg
  Body Weight (g) Day 21, individual animals: 21 g
  Body Weight Day 21, Mean: 21.00 g
  Body Weight Day 21, Median: 21.00 g
  Relative to initial body wt., %: 0.00%
25 mg/kg
  Body Weight (g) Day 21, individual animals: 22 g
  Body Weight Day 21, Mean: 22.13 g
  Body Weight Day 21, Median: 22.13 g
  Relative to initial body wt., %: 0.00%
